These results are taken from PMC10734620, “A blinded in vitro analysis of the intrinsic immunogenicity of hepatotoxic drugs: implications for preclinical risk assessment” (Toxicological Sciences, 2023).

The test system of data set [1] is PBMC. The experiment in a line: Inhibition of mitogen-induced (PHA-P) PBMC proliferation. The data set is classed as cell-based, human. The note with it: compound 48 h, then PHA-P 10 µg/ml 24 h, [3H]-thymidine. The protocol: Test compounds were provided by GSK to Liverpool as blinded dry powders with a given volume of dimethyl sulfoxide to prepare stock concentrations of 50 mM. Stock concentrations were aliquoted and stored at −80°C until required for experiments. A fresh aliquot was utilized for every experiment. PBMC from 3 healthy donors were used to determine the maximum tolerated concentration of each test compound. PBMC (0.15 × 10^6) were cultured with graded compound concentrations in U-bottomed 96-well plates for 48 h at 37°C, 5% CO2. Phytohemagglutinin (PHA-P; 10 µg/ml) was added to cells for a further 24 h followed by assessment of proliferation through the addition of [^3H]-thymidine (0.5 µCi/well) for the last 16 h. […] The IC50 value was then calculated using 4-parameter logistic curve-fitting model (GraphPad prism 7.0).
Figure 2. Toxicity profiles of training and test compounds. […] PHA-P (10 µg/ml) was added to cells for a further 24 h followed by assessment of proliferation through the addition of [^3H]-thymidine (0.5 µCi/well) for the last 16 h. […] 4-parameter logistic functions were fit to the data and IC50 values were then reported (GraphPad prism 7.0). […] LPB (Liverpool Pharmacology Biobank) represents the unique identifier for PBMC isolated from each consented healthy blood donor for drug safety research. Percentage proliferation for each compound concentration = Proliferation following drug exposure divided by proliferation after cell culture media exposure multiplied by 100.

Data set [2] has as its system T-cell clones. The experiment in a line: Generation and drug-specificity testing of T-cell clones. The data set is classed as cell-based, human. The note with it: priming assay and/or T-cell clones. The protocol: To establish T-cell lines, PBMC from 3 healthy HLA-typed (Table 2) donors were cultured with individual test compounds (at concentrations not associated with inhibition of mitogen-driven PBMC proliferation; see Figure 2 for individual concentrations) for 14 days. Medium was supplemented with IL-2 (50 U/ml; Peprotech, New Jersey) to maintain drug-specific T-cell expansion. T-cell clones were generated from the T-cell lines by serial dilution and repetitive mitogen stimulation ([Schnyder et al., 2000]). T-cells (0.3–3 cells/well) were cultured with irradiated allogenic PBMC (5 × 10^4/well) and PHA-P (1 µg/ml) in IL-2 containing medium. The medium was supplemented with fresh IL-2 on days 6, 9 and every 2 days thereafter. Growing cultures were expanded further with a second round of mitogen stimulation and tested for drug-specific T-cell proliferation on day 28. Cloned T-cells (5 × 10^4/well) were cultured with irradiated autologous EBV-transformed B-cells (1 × 10^4/well) and drug in duplicate wells for 48 h. Wells containing medium served as a negative control. Proliferation was measured by the addition of [^3H]-thymidine followed by scintillation counting. T-cell clones with SI ≥ 2 were considered drug-responsive and expanded using irradiated allogeneic PBMC for dose-response studies and assessment of CD4/8 phenotyping.
Proliferation was measured by the addition of [^3H]-thymidine as described above.
T-cell clones were washed with FACS buffer and CD phenotype determined using flow cytometry. Cells (10 000) were acquired using a FACSCanto II (BD Biosciences) and data analyzed by FACSDiva software.
Figure 6. Generation of training compound (nitroso sulfamethoxazole, vancomycin, and Bandrowski’s base)-specific T-cell clones. PBMC from 3 healthy donors were cultured with training compounds and supplemented with IL-2 (50 U/ml) for 14 days. T-cell clones were generated from the T-cell lines by serial dilution and repetitive mitogen stimulation. T-cells (0.3–3 cells/well) were stimulated with irradiated allogenic PBMC (5 × 10^4/well) and phytohemagglutinin (1 µg/ml). Well growing cultures were subjected to a second round of expansion then tested for drug-specific T-cell proliferation. Proliferation was measured by the addition of ^3H-thymidine followed by scintillation counting. A–C, Initial specificity test for nitroso sulfamethoxazole, vancomycin, and Bandrowski’s base clones. T-cell clones showing stimulation index, SI ≥ 2 were considered drug-responsive and expanded and used in dose-response studies. SI = Drug-induced T-cell proliferation divided by T-cell proliferation in cell culture media. […] T-cell activation was determined using [^3H]-thymidine incorporation.
Figure 7. […] PBMC from 3 healthy donors were cultured with test compounds and supplemented with IL-2 (50 U/ml) for 14 days. T-cell clones were generated from the T-cell lines by serial dilution and repetitive mitogen stimulation. T-cells (0.3–3 cells/well) were stimulated with irradiated allogenic PBMC (5 × 10^4/well) and phytohemagglutinin (1 µg/ml). Well growing cultures were subjected to a second round of expansion then tested for drug-specific T-cell proliferation. Proliferation was measured by the addition of ^3H-thymidine followed by scintillation counting. […] T-cell activation was determined using [^3H]-thymidine incorporation.

Details of data set [3]: method as in Sakatis et al., 2012; Schofield et al., 2021. Particulars: Positive = above the threshold of concern; assays not listed negative; ref Sakatis et al., 2012; Schofield et al., 2021; cited from earlier work.
On the set-up of data set [4]: method as in FDA DILIrank datasets. The note with it: ref FDA DILIrank datasets; cited from earlier work.
Details of data set [5]: method as in earlier work. The note with it: ref National Institute of Diabetes and Digestive and Kidney Diseases (2012); cited from earlier work.
The subject of data set [6] is naïve T-cells. The experiment in a line: Priming of naïve human T-cells (dendritic cell-T-cell coculture). Particulars: for Proliferation of primed T-cells, drug- vs medium-restimulated wells: 14 days priming, restimulation 48 h at single concentration, 48 wells, [3H]-thymidine; for Proliferation in medium restimulated wells after priming: primed 2 weeks, medium restimulation. In kind it is cell-based. The protocol: CD14+ monocytes were positively selected using CD14 antibody-conjugated microbeads. This was followed by the depletion of CD25+ cells from the CD14- population and the negative selection of CD45RA+ naïve T-cells. […] Dendritic cells were generated by culturing monocytes with a cocktail of GM-CSF (800 U/ml) and IL-4 (800 U/ml) in culture media for 6 days. Both cytokines were purchased from Peprotech (New Jersey). A maturation cocktail of TNF-α (25 ng/ml) and LPS (1 µg/ml) was added for 16 h before establishing the T-cell priming culture. Dendritic cells (8 × 10^3 per well) were cultured with naïve T-cells (1 × 10^5 per well) and the test compounds in a 96-well U-bottom tissue culture plate for 14 days at 37°C, 5% CO2. Cells were then washed extensively to remove unbound drug and cultures were restimulated with test compound or medium control (48 wells) for 48 h. Subsequent experiments were performed with training compounds to investigate the dose-dependent stimulation of naïve T-cells. In these experiments, T-cells were cultured with 3 concentrations of the test compound and medium (negative control) during the restimulation step. T-cell proliferative responses were determined by addition of [^3H]-thymidine (0.5 µCi/well) for the final 16 h of the culture period. Plates were harvested and counted as described above. […] Student’s t test was performed to determine statistical significance of T-cell proliferation when comparing medium- and drug-treated cultures (*p ≤ .05; **p ≤ .005; ***p < .001).
Figure 3. Naïve T-cell priming with training compounds. CD14+ monocytes were utilized to generate dendritic cells with a cocktail of GM-CSF (800 U/ml) and IL-4 (800 U/ml) in culture media for 6 days. […] A, Nitroso sulfamethoxazole. B, Vancomycin. C, Bandrowski’s base. D, Carbamazepine. E, Piperacillin. The degree of naïve T-cell priming was determined by comparing the counts per minutes (cpm) of drug and media-treated cultures using a beta counter. Student’s t test was performed to determine statistical significance (*p ≤ .05; **p ≤ .005; ***p < .001). Each data point represents T-cells proliferation in individual well of a 96 U-bottomed plate.
Figure 4. Dose-dependent stimulation of primed T-cells with training compound. […] Primed cells were washed extensively and then restimulated with 3 drug concentrations (low, medium, and high) for 48 h followed by determination of T-cell activation by [^3H]-thymidine incorporation. Each data point represents T-cells proliferation in individual well of a 96 U-bottomed plate.
Figure 5. Naïve T-cell priming with test compounds. […] B, Dacarbazine. […] F, Iproniazid. G, Mepivacaine. H, Nevirapine. […] J, Phenoxybenzamine. Primed cells were washed extensively and then restimulated medium or drug for 48 h followed by determination of T-cell activation by [^3H]-thymidine incorporation. Each data point represents T-cells proliferation in individual well of a 96 U-bottomed plate.

Setting [7] is: Homo sapiens, PBMC, PBMC from 3 healthy donors, read-out: IC50, inhibition of mitogen-driven PBMC proliferation.
Where [8] appears, read: PBMC from 3 healthy donors, read-out: IC50, inhibition of mitogen-driven PBMC proliferation.

SMILES strings stand for the structures. Like-named read-outs stand apart in the source and are kept apart here.

As for `CN(C)/N=N/c1[nH]cnc1C(N)=O` [Dacarbazine], the IC50 in data set [1] (setting [7]) was 15 µM; in data set [1] (setting [8]) it was at most 20 µM. The “Overall immunogenicity call in T-cell assays” value (“Overall immunogenicity call” for short) in data set [2] is listed as “did not flag these compounds as immunogenic”. The “Routine Assays that are Positive (GSK)” value in data set [3] is given as “Reactive metabolite; 3D hepatocyte spheroid”. Besides, the “FDA Clinical Hepatotoxicity Concern” value in data set [4] was “Most”. Further, the “LiverTox annotation: likelihood as cause of clinically apparent liver injury” value (from here on “LiverTox annotation: likelihood as cause”) in data set [5] is “Highly likely cause of clinically apparent liver injury. May be immunologically mediated as usually occurs with second or third cycle and accompanied by eosinophilia”.

With `COc1cc([C@@H]2c3cc4c(cc3[C@@H](O[C@@H]3O[C@@H]5CO[C@@H](C)O[C@H]5[C@H](O)[C@H]3O)[C@H]3COC(=O)[C@H]23)OCO4)cc(OC)c1O` [Etoposide], the IC50 in data set [1] (setting [7]) is 20 µM; in data set [1] (setting [8]) it was at most 20 µM. For the same compound, the “Overall immunogenicity call” value in data set [2] is reported as “no false positives”. Further, the “FDA Clinical Hepatotoxicity Concern” value in data set [4] is “Less”. In addition, the “LiverTox annotation: likelihood as cause” value in data set [5] is “Probable cause of clinically apparent liver injury. Absence of immunoallergic features (rash, fever, eosinophilia) and of autoantibodies noted. Uncommon to have features of hypersensitivity”.

As for `CC(C)NNC(=O)c1ccncc1` [Iproniazid], in data set [1] (PBMC from 3 healthy donors, listed as iproniazid, read-out: IC50, inhibition of mitogen-driven PBMC proliferation), the IC50 is at least 50 µM. In data set [1] (setting [8]), the IC50 came to 290 µM. Further, in data set [6], the “Proliferation of primed T-cells, drug- vs medium-restimulated wells” value (shortened to “Proliferation … vs medium-restimulated wells”) was “increases in proliferation with drug restimulation was not observed” and the “Proliferation in medium restimulated wells after priming” value (“Proliferation … after priming” below) is “high level of proliferation”. Besides, in data set [2], the “Overall immunogenicity call” value is reported as “did not flag these compounds as immunogenic”. For the same compound, in data set [3], the “Routine Assays that are Positive (GSK)” value is “None”. Moreover, in data set [4], the “FDA Clinical Hepatotoxicity Concern” value is “Most”.

For the compound `Cc1cccc(C)c1NC(=O)C1CCCCN1C` (centres unmarked) [Mepivacaine], the IC50 in data set [1] (PBMC from 3 healthy donors, listed as mepivacaine, read-out: IC50, inhibition of mitogen-driven PBMC proliferation) was at least 50 µM; in data set [1] (setting [8]) it was 210 µM. Also, the “Proliferation … vs medium-restimulated wells” value in data set [6] was “increases in proliferation with drug restimulation was not observed”. Further, the “Proliferation … after priming” value in data set [6] is listed as “high level of proliferation”. Also, the “Overall immunogenicity call” value in data set [2] is on record as “no false positives”. In data set [3], the “Routine Assays that are Positive (GSK)” value is “None”. Besides, the “FDA Clinical Hepatotoxicity Concern” value in data set [4] is listed as “No”. Moreover, the “LiverTox annotation: likelihood as cause” value in data set [5] was “Unlikely to be a cause of clinically apparent liver injury”.

For `Cc1ccnc2c1NC(=O)c1cccnc1N2C1CC1` [Nevirapine], the IC50 in data set [1] (PBMC from 3 healthy donors, listed as nevirapine, read-out: IC50, inhibition of mitogen-driven PBMC proliferation) is at least 50 µM; in data set [1] (setting [8]) it was 110 µM. Besides, the “Proliferation … vs medium-restimulated wells” value in data set [6] is “increases in proliferation with drug restimulation was not observed”. The “Proliferation … after priming” value in data set [6] is given as “high level of proliferation”. The “Overall immunogenicity call” value in data set [2] was “did not flag these compounds as immunogenic”. In addition, the “Routine Assays that are Positive (GSK)” value in data set [3] is “None”. For the same compound, the “FDA Clinical Hepatotoxicity Concern” value in data set [4] is “Most”. Moreover, in data set [5], the “LiverTox annotation: likelihood as cause” value is “Well-known cause of clinically apparent liver injury. Immunoallergic hepatitis associated with specific HLA types”.

Consider `O=C1CN(/N=C/c2ccc([N+](=O)[O-])o2)C(=O)N1` [Nitrofurantoin], for which the values for the IC50 in data set [1] (setting [7]) and in data set [1] (setting [8]) were 15 µM and at most 20 µM, respectively. In addition, the “Overall immunogenicity call” value in data set [2] is given as “did not flag these compounds as immunogenic”. Further, the “FDA Clinical Hepatotoxicity Concern” value in data set [4] is on record as “Most”. Also, the “LiverTox annotation: likelihood as cause” value in data set [5] is “Well-known cause of clinically apparent liver injury. Oxidative free radical formation. Some cases show autoimmune etiology with linkage to HLA-DR6 and DR2”.

On to `CC(COc1ccccc1)N(CCCl)Cc1ccccc1` (centres unmarked) [Phenoxybenzamine], for which the IC50 in data set [1] (Homo sapiens, PBMC, read-out: IC50, inhibition of mitogen-driven PBMC proliferation, PBMC from 3 healthy donors) was 15 µM; in data set [1] (read-out: IC50, inhibition of mitogen-driven PBMC proliferation, PBMC from 3 healthy donors), at most 20 µM. The “Overall immunogenicity call” value in data set [2] is reported as “no false positives”. The “Routine Assays that are Positive (GSK)” value in data set [3] is “Reactive metabolite”. The “FDA Clinical Hepatotoxicity Concern” value in data set [4] was “No”.
